Data reported in patent US8765940B2 (priority 2009, dated 2014).
pKi: −log10 of the molar value.

Molecular target: PI3Kδ (Homo sapiens (Human), UniProt O00329)
Format: biochemical
Details: PI3Kδ Alphascreen assay
Procedure: A PI3K Alphascreen® assay (PerkinElmer, Waltham, Mass.) was used to measure the activity of a panel of four phosphoinositide 3-kinases: PI3Kα, PI3Kβ, PI3Kγ, and PI3Kδ. Enzyme reaction buffer was prepared using sterile water (Baxter, Deerfield, Ill.) and 50 mM Tris HCl pH 7, 14 mM MgCl2, 2 mM sodium cholate, and 100 mM NaCl. 2 mM DTT was added fresh the day of the experiment. The Alphascreen buffer was made using sterile water and 10 mM Tris HCl pH 7.5, 150 mM NaCl, 0.10% Tween 20, and 30 mM EDTA. 1 mM DTT was added fresh the day of the experiment. Compound source plates used for this assay were 384-well Greiner clear polypropylene plates containing test compounds at 5 mM and diluted 1:2 over 22 concentrations. Columns 23 and 24 contained only DMSO as these wells comprised the positive and negative controls, respectively. Source plates were replicated by transferring 0.5 uL per well into 384-well Optiplates (PerkinElmer, Waltham, Mass.).
Each PI3K isoform was diluted in enzyme reaction buffer to 2× working stocks. PI3Kα was diluted to 1.6 nM, PI3Kβ was diluted to 0.8 nM, PI3Kγ was diluted to 15 nM, and PI3Kδ was diluted to 1.6 nM. PI(4,5)P2 (Echelon Biosciences, Salt Lake City, Utah) was diluted to 10 μM and ATP was diluted to 20 μM. This 2× stock was used in the assays for PI3Kα and PI3Kβ. For assay of PI3Kγ and PI3Kδ, PI(4,5)P2 was diluted to 10 μM and ATP was diluted to 8 μM to prepare a similar 2× working stock. Alphascreen reaction solutions were made using beads from the anti-GST Alphascreen kit (PerkinElmer, Waltham, Mass.). Two 4× working stocks of the Alphascreen reagents were made in Alphascreen reaction buffer. In one stock, biotinylated-IP4 (Echelon Biosciences, Salt Lake City, Utah) was diluted to 40 nM and streptavadin-donor beads were diluted to 80 μg/mL. In the second stock, PIP3-binding protein (Echelon Biosciences, Salt Lake City, Utah) was diluted to 40 nM and anti-GST-acceptor beads were diluted to 80 μg/mL.
Using a 384-well Multidrop (Titertek, Huntsville, Ala.), 10 μL/well of 2× enzyme stock was added to columns 1-24 of the assay plates for each isoform. 10 μL/well of the appropriate substrate 2× stock (containing 20 μM ATP for the PI3Kα and β assays and containing 8 μM ATP for the PI3Kγ and δ assays) was then added to Columns 1-24 of all plates. Plates were then incubated at room temperature for 20 minutes. In the dark, 10 μL/well of the donor bead solution was added to columns 1-24 of the plates to quench the enzyme reaction. The plates were incubated at room temperature for 30 minutes. Still in the dark, 10 μL/well of the acceptor bead solution was added to columns 1-24 of the plates. The plates were then incubated in the dark for 1.5 hours. The plates were read on an Envision multimode Plate Reader (PerkinElmer, Waltham, Mass.) using a 680 nm excitation filter and a 520-620 nm emission filter.

Chain of PI3Kδ (O00329 whole entry): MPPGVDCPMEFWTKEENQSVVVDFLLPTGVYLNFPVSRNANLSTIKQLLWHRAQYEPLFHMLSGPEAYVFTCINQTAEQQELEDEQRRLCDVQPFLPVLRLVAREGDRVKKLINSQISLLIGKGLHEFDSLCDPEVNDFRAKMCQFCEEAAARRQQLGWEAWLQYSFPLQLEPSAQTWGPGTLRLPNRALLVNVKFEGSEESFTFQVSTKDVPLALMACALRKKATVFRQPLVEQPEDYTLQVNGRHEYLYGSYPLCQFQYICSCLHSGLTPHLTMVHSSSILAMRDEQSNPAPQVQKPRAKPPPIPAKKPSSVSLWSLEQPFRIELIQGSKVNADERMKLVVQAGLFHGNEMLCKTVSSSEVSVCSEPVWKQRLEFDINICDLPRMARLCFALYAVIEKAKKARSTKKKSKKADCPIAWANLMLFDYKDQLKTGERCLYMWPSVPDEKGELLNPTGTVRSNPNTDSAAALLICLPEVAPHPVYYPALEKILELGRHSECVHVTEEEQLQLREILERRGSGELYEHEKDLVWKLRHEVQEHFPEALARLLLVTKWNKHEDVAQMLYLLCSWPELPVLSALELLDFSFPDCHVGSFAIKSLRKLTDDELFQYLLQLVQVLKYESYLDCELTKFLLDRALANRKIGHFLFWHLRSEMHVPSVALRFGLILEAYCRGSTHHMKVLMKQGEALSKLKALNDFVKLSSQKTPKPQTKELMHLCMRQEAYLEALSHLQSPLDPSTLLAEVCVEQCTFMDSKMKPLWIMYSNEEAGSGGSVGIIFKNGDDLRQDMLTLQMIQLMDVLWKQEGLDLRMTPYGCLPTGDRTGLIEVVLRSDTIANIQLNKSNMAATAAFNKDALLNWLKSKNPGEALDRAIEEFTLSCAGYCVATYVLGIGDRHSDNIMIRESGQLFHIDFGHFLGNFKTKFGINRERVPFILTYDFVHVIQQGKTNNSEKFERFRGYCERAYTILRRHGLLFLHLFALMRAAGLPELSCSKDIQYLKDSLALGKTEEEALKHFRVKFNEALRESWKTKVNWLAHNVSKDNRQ
Chain of PI3Kδ (P27986 whole entry partner): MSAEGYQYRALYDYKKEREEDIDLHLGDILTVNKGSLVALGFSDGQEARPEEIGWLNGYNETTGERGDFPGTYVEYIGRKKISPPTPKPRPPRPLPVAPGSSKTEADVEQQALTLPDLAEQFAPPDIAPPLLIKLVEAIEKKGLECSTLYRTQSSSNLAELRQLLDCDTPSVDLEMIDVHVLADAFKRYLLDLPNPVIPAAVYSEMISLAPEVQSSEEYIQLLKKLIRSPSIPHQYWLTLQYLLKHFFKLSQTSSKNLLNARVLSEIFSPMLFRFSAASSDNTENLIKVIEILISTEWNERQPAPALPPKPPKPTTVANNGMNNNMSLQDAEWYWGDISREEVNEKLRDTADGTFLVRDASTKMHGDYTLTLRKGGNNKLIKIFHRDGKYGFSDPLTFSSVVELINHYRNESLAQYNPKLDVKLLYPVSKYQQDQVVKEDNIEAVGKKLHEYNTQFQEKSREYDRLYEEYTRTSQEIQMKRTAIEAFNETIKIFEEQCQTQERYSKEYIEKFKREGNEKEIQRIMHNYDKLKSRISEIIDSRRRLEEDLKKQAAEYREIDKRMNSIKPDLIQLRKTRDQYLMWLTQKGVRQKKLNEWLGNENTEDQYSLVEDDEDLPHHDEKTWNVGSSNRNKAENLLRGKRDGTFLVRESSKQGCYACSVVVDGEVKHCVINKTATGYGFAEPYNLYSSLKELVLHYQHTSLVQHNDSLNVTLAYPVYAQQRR

Row | SMILES | pKi
1 | Cc1c(N2CCOC(C)(C)C2)nc2cc(F)cc(F)c2c1N1CC2(CCOCC2)c2ncc(N3CCOCC3)cc21 [1′-(2-(2,2-dimethyl-4-morpholinyl)-5,7-difluoro-3-methyl-4-quinolinyl)-6′-(4-morpholinyl)-1′,2,2′,3,5,6-hexahydrospiro[pyran-4,3′-pyrrolo[3,2-b]pyridine]] | 8.27
2 | Cc1c(-c2ccccn2)nc2cccc(F)c2c1N1CCS(=O)(=O)c2ncc(N3CCOCC3)cc21 [1-(5-fluoro-3-methyl-2-(2-pyridinyl)-4-quinolinyl)-7-(4-morpholinyl)-2,3-dihydro-1H-pyrido[2,3-b][1,4]thiazine 4,4-dioxide] | 7.89
3 | Cc1c(-c2ccccc2)nc2ncccc2c1N1CC2(CCOCC2)c2ncc(N3CCOCC3)cc21 [1′-(3-methyl-2-phenyl-1,8-naphthyridin-4-yl)-6′-(4-morpholinyl)-1′,2,2′,3,5,6-hexahydrospiro[pyran-4,3′-pyrrolo[3,2-b]pyridine]] | 7.65
4 | Cc1c(N2CC(C)(C)CCC2=O)nc2cc(F)cc(F)c2c1N1CC2(CCOCC2)c2ncc(N3CCOCC3)cc21 [1-(5,7-difluoro-3-methyl-4-(6′-(4-morpholinyl)-2,3,5,6-tetrahydrospiro[pyran-4,3′-pyrrolo[3,2-b]pyridin]-1′(2′H)-yl)-2-quinolinyl)-5,5-dimethyl-2-piperidinone] | 8.57
5 | Cc1nc2ccc(Cl)cc2c(-n2ccc3c(C#N)cc(-c4cn[nH]c4)cc32)c1C [1-(6-chloro-2,3-dimethyl-4-quinolinyl)-6-(1H-pyrazol-4-yl)-1H-indole-4-carbonitrile] | 5.97
6 | Cc1c(-c2ccccc2F)nc2cc(F)ccc2c1N1CC2(CCOCC2)c2ccc(N3CCOCC3)cc21 [1-(7-fluoro-2-(2-fluorophenyl)-3-methyl-4-quinolinyl)-6-(4-morpholinyl)-1,2,2′,3′,5′,6′-hexahydrospiro[indole-3,4′-pyran]] | 7.60
7 | Cc1nc2ccc(Cl)cc2c(-n2ccc3c(C#N)cc(-c4ccncc4)cc32)c1C [1-(6-chloro-2,3-dimethyl-4-quinolinyl)-6-(4-pyridinyl)-1H-indole-4-carbonitrile] | 5.83
8 | Cc1c(-c2ccccc2S(C)(=O)=O)nc2cc(F)cc(F)c2c1N1CC2(CCOCC2)c2ncc(N3CCOCC3)cc21 [1′-(5,7-difluoro-3-methyl-2-(2-(methylsulfonyl)phenyl)-4-quinolinyl)-6′-(4-morpholinyl)-1′,2,2′,3,5,6-hexahydrospiro[pyran-4,3′-pyrrolo[3,2-b]pyridine]] | 8.35
9 | Cc1nc2ccc(Cl)cc2c(-n2ccc3c(O)cc(-c4cn[nH]c4)cc32)c1C [1-(6-chloro-2,3-dimethyl-4-quinolinyl)-6-(1H-pyrazol-4-yl)-1H-indol-4-ol] | 5.39
10 | Cc1c(-c2ccccn2)nc2cc(F)ccc2c1N1CC2(CCS(=O)(=O)CC2)c2ccc(N3CCOCC3)cc21 [1-(7-fluoro-3-methyl-2-(2-pyridinyl)-4-quinolinyl)-6-(4-morpholinyl)-1,2,2′,3′,5′,6′-hexahydrospiro[indole-3,4′-thiopyran]-1′,1′-dioxide] | 7.19
11 | Cc1c(N2CC(C)(C)CC2=O)nc2cc(F)cc(F)c2c1N1CC2(CCOCC2)c2ncc(N3CCOCC3)cc21 [1-(5,7-difluoro-3-methyl-4-(6′-(4-morpholinyl)-2,3,5,6-tetrahydrospiro[pyran-4,3′-pyrrolo[3,2-b]pyridin]-1′(2′H)-yl)-2-quinolinyl)-4,4-dimethyl-2-pyrrolidinone] | 8.65
12 | COc1cc(-c2nc3cc(F)cc(F)c3c(N3CC4(CCOCC4)c4ncc(N5CCOCC5)cc43)c2C)ccn1 [1′-(5,7-difluoro-2-(2-methoxy-4-pyridinyl)-3-methyl-4-quinolinyl)-6′-(4-morpholinyl)-1′,2,2′,3,5,6-hexahydrospiro[pyran-4,3′-pyrrolo[3,2-b]pyridine]] | 8.16
13 | Cc1c(N2CCCC2=O)nc2cc(F)cc(F)c2c1N1CC(C)(C)c2ncc(N3CCOCC3)cc21 [1-(4-(3,3-dimethyl-6-(4-morpholinyl)-2,3-dihydro-1H-pyrrolo[3,2-b]pyridin-1-yl)-5,7-difluoro-3-methyl-2-quinolinyl)-2-pyrrolidinone] | 8.81
14 | Cc1ncccc1-c1nc2cc(F)ccc2c(N2CC3(CCOCC3)c3ccc(N4CCOCC4)cc32)c1C [1-(7-fluoro-3-methyl-2-(2-methyl-3-pyridinyl)-4-quinolinyl)-6-(4-morpholinyl)-1,2,2′,3′,5′,6′-hexahydrospiro[indole-3,4′-pyran]] | 7.84

Other lines, results leading:

Row | pKi | SMILES
15 | 5.43 | COc1cc(N2CCOCC2)cc2c1ccn2-c1c(C)c(C)nc2ccc(Cl)cc12 [6-chloro-4-(4-methoxy-6-(4-morpholinyl)-1H-indol-1-yl)-2,3-dimethylquinoline]
16 | 8.17 | Cc1c(-c2ccccn2)nc2cc(F)ccc2c1N1CC(C)(C)c2ncc(N3CCOCC3)cc21 [4-(3,3-dimethyl-6-(4-morpholinyl)-2,3-dihydro-1H-pyrrolo[3,2-b]pyridin-1-yl)-7-fluoro-3-methyl-2-(2-pyridinyl)quinoline]
17 | 6.81 | Cc1c(-c2ccccn2)nc2cc(F)ccc2c1N1CC(CO)(CO)c2ccc(N3CCOCC3)cc21 [(1-(7-fluoro-3-methyl-2-(2-pyridinyl)-4-quinolinyl)-6-(4-morpholinyl)-2,3-dihydro-1H-indole-3,3-diyl)dimethanol]
18 | 8.38 | Cc1ccnc(-c2nc3cc(F)ccc3c(N3CC(C)(C)c4ncc(N5CCOCC5)cc43)c2C)c1 [4-(3,3-dimethyl-6-(4-morpholinyl)-2,3-dihydro-1H-pyrrolo[3,2-b]pyridin-1-yl)-7-fluoro-3-methyl-2-(4-methyl-2-pyridinyl)quinoline]
19 | 8.82 | Cc1ccc(S(C)(=O)=O)c(-c2nc3cc(F)cc(F)c3c(N3CC4(CCOCC4)c4ncc(N5CCOCC5)cc43)c2C)c1 [1′-(5,7-difluoro-3-methyl-2-(5-methyl-2-(methylsulfonyl)phenyl)-4-quinolinyl)-6′-(4-morpholinyl)-1′,2,2′,3,5,6-hexahydrospiro[pyran-4,3′-pyrrolo[3,2-b]pyridine]]
20 | 8.27 | Cc1ccnc(-c2nc3cnccc3c(N3CC(C)(C)c4ncc(N5CCOCC5)cc43)c2C)c1 [4-(3,3-dimethyl-6-(4-morpholinyl)-2,3-dihydro-1H-pyrrolo[3,2-b]pyridin-1-yl)-3-methyl-2-(4-methyl-2-pyridinyl)-1,7-naphthyridine]
21 | 6.01 | Cc1c(C(F)(F)F)nc2ccc(Cl)cc2c1N1CC(C)(C)c2ccc(N3CCOCC3)cc21 [6-chloro-4-(3,3-dimethyl-6-(4-morpholinyl)-2,3-dihydro-1H-indol-1-yl)-3-methyl-2-(trifluoromethyl)quinoline]
22 | 7.33 | Cc1c(-c2ccccc2F)nc2ccccc2c1N1CC(C)(C)c2ccc(N3CCOCC3)cc21 [4-(3,3-dimethyl-6-(4-morpholinyl)-2,3-dihydro-1H-indol-1-yl)-2-(2-fluorophenyl)-3-methylquinoline]
23 | 6.29 | Cc1nc2c(C(F)(F)F)cccc2c(N2CC(C)(C)c3ccc(N4CCOCC4)cc32)c1C [4-(3,3-dimethyl-6-(4-morpholinyl)-2,3-dihydro-1H-indol-1-yl)-2,3-dimethyl-8-(trifluoromethyl)quinoline]
24 | 7.02 | Cc1c(-c2ccccn2)nc2cc(F)ccc2c1N1CC(C)(C)c2ncc(-c3cn[nH]c3)cc21 [4-(3,3-dimethyl-6-(1H-pyrazol-4-yl)-2,3-dihydro-1H-pyrrolo[3,2-b]pyridin-1-yl)-7-fluoro-3-methyl-2-(2-pyridinyl)quinoline]
25 | 6.49 | Cc1c(-c2ccccn2)nc2cc(F)ccc2c1N1CC2(CCOCC2)c2ncc(-c3cn[nH]c3)cc21 [1′-(7-fluoro-3-methyl-2-(2-pyridinyl)-4-quinolinyl)-6′-(1H-pyrazol-4-yl)-1′,2,2′,3,5,6-hexahydrospiro[pyran-4,3′-pyrrolo[3,2-b]pyridine]]
26 | 8.82 | Cc1c(N2CCOC(C)(C)C2)nc2cc(F)cc(F)c2c1N1CC(C)(C)c2ncc(N3CCOCC3)cc21 [2-(2,2-dimethyl-4-morpholinyl)-4-(3,3-dimethyl-6-(4-morpholinyl)-2,3-dihydro-1H-pyrrolo[3,2-b]pyridin-1-yl)-5,7-difluoro-3-methylquinoline]
27 | 7.30 | Cc1nc2c(Cl)cccc2c(N2CC(C)(C)c3ccc(N4CCOCC4)cc32)c1C [8-chloro-4-(3,3-dimethyl-6-(4-morpholinyl)-2,3-dihydro-1H-indol-1-yl)-2,3-dimethylquinoline]
28 | 8.39 | Cc1ncccc1-c1nc2cc(F)ccc2c(N2CC(C)(C)c3ncc(N4CCOCC4)cc32)c1C [4-(3,3-dimethyl-6-(4-morpholinyl)-2,3-dihydro-1H-pyrrolo[3,2-b]pyridin-1-yl)-7-fluoro-3-methyl-2-(2-methyl-3-pyridinyl)quinoline]
29 | 6.95 | CC1(C)CN(c2c3c(nc4ccc(Cl)cc24)C(C)(C)CC3)c2cc(N3CCOCC3)ccc21 [7-chloro-9-(3,3-dimethyl-6-(4-morpholinyl)-2,3-dihydro-1H-indol-1-yl)-3,3-dimethyl-2,3-dihydro-1H-cyclopenta[b]quinoline]
30 | 6.18 | Cc1cnc2ccccc2c1N1CC(C)(C)c2ccc(N3CCOCC3)cc21 [4-(3,3-dimethyl-6-(4-morpholinyl)-2,3-dihydro-1H-indol-1-yl)-3-methylquinoline]
31 | 7.76 | Cc1c(Cc2cccc(C(F)(F)F)c2)nc2cc(F)cc(F)c2c1N1CC(C)(C)c2ncc(N3CCOCC3)cc21 [4-(3,3-dimethyl-6-(4-morpholinyl)-2,3-dihydro-1H-pyrrolo[3,2-b]pyridin-1-yl)-5,7-difluoro-3-methyl-2-(3-(trifluoromethyl)benzyl)quinoline]
32 | 5.85 | Cc1c(-c2ccccn2)nc2cc(F)ccc2c1N1CC(C)(C)c2ccc(-c3nc(N)ncc3Cl)cc21 [5-chloro-4-(1-(7-fluoro-3-methyl-2-(2-pyridinyl)-4-quinolinyl)-3,3-dimethyl-2,3-dihydro-1H-indol-6-yl)-2-pyrimidinamine]
33 | 7.55 | COc1cc2nc(C)c(C)c(N3CCS(=O)(=O)c4ccc(N5CCOCC5)cc43)c2cc1Cl [4-(6-chloro-7-methoxy-2,3-dimethyl-4-quinolinyl)-6-(4-morpholinyl)-3,4-dihydro-2H-1,4-benzothiazine 1,1-dioxide]
34 | 5.42 | Cc1c(-c2cc(C(F)(F)F)cc(C(F)(F)F)c2)nc2cccc(F)c2c1N1CC(C)(C)c2ccc(N3CCOCC3)cc21 [2-(3,5-bis(trifluoromethyl)phenyl)-4-(3,3-dimethyl-6-(4-morpholinyl)-2,3-dihydro-1H-indol-1-yl)-5-fluoro-3-methylquinoline]
